One data set addresses T1, α1β GlyR (Rattus norvegicus, UniProt P07727+P20781).
T1 construct: The cells were transfected with plasmids encoding the following proteins; expressed in transfected cells; host or cells: HEK293 (ATCC CRL-1573)
The experiment in a line: cell-based. The protocol: The cells were transfected with plasmids encoding the following proteins: (i). rat GlyR α (1, 2, 3) subunits alone or combined with rat β subunits (Uniprot Accession Numbers: Q546L7, P22771, P20236, P20781); and (ii). rat GABAAR α1 combined with rat β2 and γ2 subunits (Uniprot Accession Numbers: P62813, P63138, P18508). The EGFP expression was used as a marker of successful protein expression. The transfection was performed using Lipofectamine 2000 (Invitrogen, ThermoFisher, Carlsbad, CA, USA) using the fabricant protocol. The plasmids used to express GlyRs and GABAARs have been previously described. To track the successful expression of GlyR β subunits and the GABAA γ2 or β2 subunit, these proteins were subcloned in the pIRES2-EGFP vector. The transfection ratio to obtain β-containing GlyRs was 1:5 of α:β, while the expression of γ2-containing GABAA receptors was 1:2:5 of α:β:γ2 [14, 15]. Chimeric GlyRs were described in a previous report. Site directed mutagenesis was performed by Charm Gene Science Mutagenex LLC. (Cumming, GA, USA). All the constructs were checked by full-length sequencing (SNPSaurus, Eugene, OR, USA).
In brief, patch electrodes (3–4 MΩ) were pulled from borosilicate glasses in a PC-100 puller (Narishige, Tokyo, Japan); then, they were filled with an intracellular solution, which contained (in mM) 120 CsCl, 8 EGTA, 10 HEPES (pH 7.4), 4 MgCl2, 0.5 GTP, and 2 ATP. The extracellular solution contained (in mM) 140 NaCl, 5.4 KCl, 2.0 CaCl2, 1.0 MgCl2, 10 HEPES (pH 7.4), and 10 glucose. Whole-cell patch-clamp recordings were performed at −60 mV with an Axoclamp 200B (Molecular Devices, Sunnyvale, CA, USA) or with HEKA EPC-10 (HEKA Elektronik GmbH, Reutlingen, Germany) amplifiers. […] Brief (3–5 s) pulses of agonist together with alkaloids were applied to cells. Stock solutions of the alkaloids were prepared in high purity distilled water. Aliquots of these stock solutions were diluted in reservoirs containing extracellular solution. […] The concentration–response curve parameters for the alkaloid inhibition (IC50, nH, and the maximal current inhibition) were obtained from the fitted curve of normalized concentration–response data points to the equation Iagonist = Imax (agonist)nH/((agonist)nH + (EC50)nH). The IC50 curves are best-fit mean ± SE from pooled data. […] The inhibition constant (Ki) was calculated using the Cheng–Prusoff equation (Ki = IC50/((2 + ([Agonist]/EC50)^nH)^1/nH − 1). The concentration of agonist corresponds to the sub-saturating agonist concentration used to obtain the IC50 for each alkaloid on a given GlyR subtype.

The next data set deals with T2, α1 GlyR (Rattus norvegicus, UniProt P07727).
T2 construct: expressed in transfected cells; host or cells: HEK293 (ATCC CRL-1573)
T2 sequence (P07727 29-457): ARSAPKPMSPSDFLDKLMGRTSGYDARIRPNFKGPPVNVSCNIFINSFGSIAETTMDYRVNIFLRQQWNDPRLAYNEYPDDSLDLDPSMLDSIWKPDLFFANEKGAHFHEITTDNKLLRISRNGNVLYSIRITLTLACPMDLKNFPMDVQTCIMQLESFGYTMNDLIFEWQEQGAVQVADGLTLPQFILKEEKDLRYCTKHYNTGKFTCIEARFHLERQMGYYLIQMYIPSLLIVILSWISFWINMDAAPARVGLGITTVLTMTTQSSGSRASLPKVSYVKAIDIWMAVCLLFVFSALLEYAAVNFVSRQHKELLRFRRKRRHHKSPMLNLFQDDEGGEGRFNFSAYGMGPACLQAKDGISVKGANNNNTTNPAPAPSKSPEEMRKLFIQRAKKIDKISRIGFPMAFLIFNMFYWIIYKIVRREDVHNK
As to conditions: homomeric α1GlyRs; cited from earlier work.

Another data set relates to native GlyRs. As to conditions: cited from earlier work.
The conditions of data set [1]: humans; cited from earlier work.
The target in a further data set is T3, α2 GlyR (Rattus norvegicus, UniProt P22771).
T3 construct: The cells were transfected with plasmids encoding the following proteins; expressed in transfected cells; host or cells: HEK293 (ATCC CRL-1573)
T3 sequence (P22771 28-452): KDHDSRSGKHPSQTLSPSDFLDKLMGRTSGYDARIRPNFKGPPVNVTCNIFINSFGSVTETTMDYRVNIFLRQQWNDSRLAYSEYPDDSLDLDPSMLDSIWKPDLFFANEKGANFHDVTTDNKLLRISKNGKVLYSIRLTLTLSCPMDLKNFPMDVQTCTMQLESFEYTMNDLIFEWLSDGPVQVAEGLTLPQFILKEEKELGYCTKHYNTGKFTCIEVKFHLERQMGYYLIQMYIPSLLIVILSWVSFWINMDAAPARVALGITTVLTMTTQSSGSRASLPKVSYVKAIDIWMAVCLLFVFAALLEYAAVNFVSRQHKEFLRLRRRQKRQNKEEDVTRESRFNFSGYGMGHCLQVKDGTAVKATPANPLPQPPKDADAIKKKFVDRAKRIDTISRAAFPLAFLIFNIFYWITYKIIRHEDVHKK
The note with it: cited from earlier work.

Structures are written as SMILES.

These results are taken from PMC10970644, “Molecular Pharmacology of Gelsemium Alkaloids on Inhibitory Receptors” (International Journal of Molecular Sciences, 2024).

T1 sequence (P20781 23-496, one chain of several): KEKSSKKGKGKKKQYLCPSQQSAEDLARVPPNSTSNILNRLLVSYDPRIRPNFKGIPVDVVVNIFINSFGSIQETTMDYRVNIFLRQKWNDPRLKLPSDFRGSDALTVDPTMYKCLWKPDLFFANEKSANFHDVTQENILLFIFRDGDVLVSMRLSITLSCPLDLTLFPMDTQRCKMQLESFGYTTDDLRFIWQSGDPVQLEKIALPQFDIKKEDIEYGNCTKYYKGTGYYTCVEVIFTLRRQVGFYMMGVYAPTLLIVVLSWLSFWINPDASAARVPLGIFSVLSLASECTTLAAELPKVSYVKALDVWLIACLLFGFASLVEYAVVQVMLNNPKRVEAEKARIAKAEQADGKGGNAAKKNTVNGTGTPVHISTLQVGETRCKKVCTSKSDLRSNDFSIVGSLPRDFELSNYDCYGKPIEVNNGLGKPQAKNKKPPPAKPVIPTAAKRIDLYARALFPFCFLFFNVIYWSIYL

Turning to `C=C[C@@]12CN(C)[C@H]3C[C@]14C(=Nc1ccccc14)[C@H]1C[C@@H]2[C@@H]3CO1` [koumine], the IC50 on α1β GlyR is 32.5 ± 13.2 µM. At α1β GlyR (Hill coefficient of inhibition curve), the nH is 0.9 ± 0.5. For the same molecule, the “Maximal Modulation” value at α1β GlyR (percentage change of glycine-evoked current) is listed as −90.8 ± 2.3%.

Regarding `C=C[C@]12CN(C)[C@@H]3[C@H]4CO[C@H](C[C@H]41)[C@]1(C(=O)Nc4ccccc41)[C@@H]32` [gelsemine], the results for the “modulation of currents (in words)” value on α1 GlyR and on α2 GlyR were “bell-shape modulation” and “concentration-dependent inhibition”, respectively. Besides, the IC50 with native GlyRs is around 40 µM. In data set [1], the lethal plasma concentrations is 13 to 30 µg/mL.

As a reminder, the IC50 is the concentration that gives 50% inhibition.
